The text below walks through data of patent US9562035B2, “Benzamide derivative useful as FASN inhibitors for the treatment of cancer” (Janssen Pharmaceutica NV, priority 2013, dated 2017).

Assay [1] has as its system A2780 ovarian cells. Put plainly: A2780 Ovarian Cell Proliferation Assay in Lipid Reduced Medium, with Palmitate (control). In kind it is cell-based. The conditions noted are these: Homo sapiens, A2780; lipid reduced medium, 25 μM palmitate, 96 h, MTT; read-out: Proliferation A2780 with Palmitate pIC50 (converted). The procedure, abridged: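 A2780 cells were seeded in RPMI1640 with 10% FCS, then switched next day to medium with 10% lipid-reduced serum. Compound was added with final 25 μM palmitate, 0.2% fatty-acid-free BSA and 0.2% DMSO, and incubated 96 h at 37 °C. Read-out was MTT absorbance at 544 nm; pIC50 = −log(IC50) from curve fit.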

For assay [2], the target named is T1, FASN Keto-reductase Domain (Homo sapiens, UniProt P49327).
T1 construct: 10 μL hFASN enzyme (full length, 300 ng, purified in house) and 360 μM NADPH; made in house
Put plainly: Fatty Acid Synthase Keto-Reductase Domain (FASN KR) Inhibition. In kind it is biochemical. The conditions noted are these: mean where tested more than once; read-out: FASN K-R Domain pIC50 (converted). A digest of the protocol: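 Full-length human FASN (300 ng) in 100 mM KH2PO4 pH 7.5 with 360 μM NADPH and 180 mM ethyl acetoacetate (stock); A340 decrease read over 20 min at room temperature.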

For assay [3], the system named is A2780 ovarian cells. The experiment in a line: A2780 Ovarian Cell Proliferation Assay in Lipid Reduced Medium, without Palmitate. It counts as cell-based. The conditions noted are these: Homo sapiens, A2780; lipid reduced medium, without palmitate, 96 h, MTT; read-out: Proliferation A2780 w/o Palmitate pIC50 (converted). A digest of the protocol: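 A2780 cells were seeded in 10% FCS medium and switched next day to 10% lipid-reduced serum without palmitate. Compounds at 0.01–30 μM were added with 0.2% DMSO, 0.2% fatty-acid-free BSA and 0.25% ethanol final. After 96 h, MTT absorbance at 544 nm was normalized to plate controls, and IC50/pIC50 came from a 4-parameter logistic fit.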

Assay [4] addresses T2, hFASN enzyme (full length) (Homo sapiens, UniProt P49327).
T2 construct: 10 μL hFASN enzyme (full length, 300 ng, purified in house); made in house
The experiment in a line: Fatty Acid Synthase (FASN) Inhibition Scintillation Proximity Assay. It counts as biochemical. The conditions noted are these: for IC50: mean where tested more than once, ~ = standard error of pIC50 larger than 0.5; for inhibition at 10 µM: read-out: FASN % Effect @1E−05M. The procedure, abridged:
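Purified full-length human FASN (300 ng) incubated 60 min at room temperature with NADPH, [3H]-acetyl-CoA and malonyl-CoA in 100 mM KH2PO4 pH 7.5, 1 mM DTT; compound at 30 μM to 0.01 μM. [3H]-palmitate captured by SPA imaging beads; IC50 from 4-parameter fit, reported as pIC50.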
For orientation: In a scintillation proximity assay essentially only radioactivity close to the scintillant gives light.

T1 sequence (P49327 whole entry, the tested form may be a part): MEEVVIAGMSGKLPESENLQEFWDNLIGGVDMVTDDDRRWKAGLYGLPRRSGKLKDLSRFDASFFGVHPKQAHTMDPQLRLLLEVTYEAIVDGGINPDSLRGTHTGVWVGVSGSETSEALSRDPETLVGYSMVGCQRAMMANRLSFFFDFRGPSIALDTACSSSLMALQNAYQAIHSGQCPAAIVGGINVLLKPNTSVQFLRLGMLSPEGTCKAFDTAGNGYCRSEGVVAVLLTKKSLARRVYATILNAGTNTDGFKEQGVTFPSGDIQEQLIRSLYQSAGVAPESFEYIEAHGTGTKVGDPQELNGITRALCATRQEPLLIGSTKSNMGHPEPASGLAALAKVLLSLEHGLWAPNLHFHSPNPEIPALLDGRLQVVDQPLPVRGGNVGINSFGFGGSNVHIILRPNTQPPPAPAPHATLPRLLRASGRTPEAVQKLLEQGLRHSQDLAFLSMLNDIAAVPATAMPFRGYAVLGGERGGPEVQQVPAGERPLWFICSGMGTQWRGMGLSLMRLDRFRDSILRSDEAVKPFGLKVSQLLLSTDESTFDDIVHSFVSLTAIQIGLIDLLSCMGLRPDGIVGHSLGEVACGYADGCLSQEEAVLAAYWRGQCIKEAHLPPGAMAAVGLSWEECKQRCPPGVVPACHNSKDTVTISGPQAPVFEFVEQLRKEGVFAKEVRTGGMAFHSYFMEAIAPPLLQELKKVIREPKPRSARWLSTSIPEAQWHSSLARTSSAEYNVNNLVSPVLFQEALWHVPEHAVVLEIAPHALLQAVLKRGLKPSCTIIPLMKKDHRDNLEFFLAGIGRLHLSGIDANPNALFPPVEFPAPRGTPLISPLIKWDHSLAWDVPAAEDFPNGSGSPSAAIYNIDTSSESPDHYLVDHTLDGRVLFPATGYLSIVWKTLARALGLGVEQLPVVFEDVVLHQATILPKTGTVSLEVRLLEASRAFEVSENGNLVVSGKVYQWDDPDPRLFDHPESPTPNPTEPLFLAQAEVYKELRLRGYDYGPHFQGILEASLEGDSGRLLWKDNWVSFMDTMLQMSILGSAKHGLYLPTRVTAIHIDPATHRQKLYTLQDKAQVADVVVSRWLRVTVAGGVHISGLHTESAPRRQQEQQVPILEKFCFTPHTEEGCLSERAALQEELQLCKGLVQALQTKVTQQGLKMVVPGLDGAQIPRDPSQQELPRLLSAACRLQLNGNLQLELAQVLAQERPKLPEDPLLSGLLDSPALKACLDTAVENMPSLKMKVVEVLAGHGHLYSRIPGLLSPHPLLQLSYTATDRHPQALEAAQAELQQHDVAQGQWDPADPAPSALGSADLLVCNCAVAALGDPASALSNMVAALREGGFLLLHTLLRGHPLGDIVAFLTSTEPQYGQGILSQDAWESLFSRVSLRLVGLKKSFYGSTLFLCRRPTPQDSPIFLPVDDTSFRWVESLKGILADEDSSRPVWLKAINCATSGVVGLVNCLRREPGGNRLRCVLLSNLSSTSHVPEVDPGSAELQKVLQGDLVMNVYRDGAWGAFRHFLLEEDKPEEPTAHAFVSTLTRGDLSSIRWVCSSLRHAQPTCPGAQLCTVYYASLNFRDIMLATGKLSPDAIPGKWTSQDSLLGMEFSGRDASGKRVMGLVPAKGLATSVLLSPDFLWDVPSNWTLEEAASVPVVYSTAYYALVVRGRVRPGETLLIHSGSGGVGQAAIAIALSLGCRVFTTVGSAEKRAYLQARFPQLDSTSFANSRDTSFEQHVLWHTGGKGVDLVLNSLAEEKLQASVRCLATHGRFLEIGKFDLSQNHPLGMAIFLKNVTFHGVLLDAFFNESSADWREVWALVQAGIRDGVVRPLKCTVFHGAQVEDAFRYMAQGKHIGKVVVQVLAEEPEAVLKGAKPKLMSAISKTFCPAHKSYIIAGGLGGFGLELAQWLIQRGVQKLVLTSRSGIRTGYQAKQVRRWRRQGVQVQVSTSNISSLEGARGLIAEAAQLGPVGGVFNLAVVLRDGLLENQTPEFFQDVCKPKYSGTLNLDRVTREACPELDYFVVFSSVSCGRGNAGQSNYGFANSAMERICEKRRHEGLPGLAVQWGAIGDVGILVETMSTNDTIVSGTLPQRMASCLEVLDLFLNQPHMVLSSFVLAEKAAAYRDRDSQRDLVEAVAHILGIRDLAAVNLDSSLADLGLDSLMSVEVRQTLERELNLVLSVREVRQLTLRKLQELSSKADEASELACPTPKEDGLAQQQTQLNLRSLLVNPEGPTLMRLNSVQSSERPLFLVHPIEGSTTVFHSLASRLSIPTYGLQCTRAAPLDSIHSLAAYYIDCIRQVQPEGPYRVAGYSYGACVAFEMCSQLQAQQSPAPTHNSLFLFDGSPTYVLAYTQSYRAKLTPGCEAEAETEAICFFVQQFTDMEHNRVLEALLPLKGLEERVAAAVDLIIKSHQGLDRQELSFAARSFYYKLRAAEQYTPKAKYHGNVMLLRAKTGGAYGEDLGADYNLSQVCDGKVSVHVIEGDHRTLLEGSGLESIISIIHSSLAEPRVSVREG
T2 sequence (P49327 whole entry): as the sequence (P49327 whole entry, the tested form may be a part) above

Turning to `Cc1ccc(C(=O)N2CC[C@H](c3ccc(-n4ccnc4)cc3)[C@H](C)C2)cc1NC(=O)c1ccc(Cl)nc1` (racemic) [Compound 53, (±)-N-(5-((3S,4S)-4-(4-(1H-imidazol-1-yl)phenyl)-3-methylpiperidine-1-carbonyl)-2-methylphenyl)-6-chloronicotinamide], the IC50 in the assay with A2780 ovarian cells [1] is 8510 nM; in assay [2], 562 nM; with A2780 ovarian cells [3], 603 nM; in assay [4], 251 nM. Also, in assay [4], the inhibition at 10 µM amounted to 101%.
On the same counts, the results for `Cc1ccc(C(=O)Nc2cc(C(=O)N3CCC(c4ccc(-c5cnn(C)c5)cc4)CC3)ccc2C)s1` [Compound 157, 5-methyl-N-(2-methyl-5-(4-(4-(1-methyl-1H-pyrazol-4-yl)phenyl)piperidine-1-carbonyl)phenyl)thiophene-2-carboxamide] are over 10000 nM, 120 nM, 115 nM, 42.7 nM and 104%.
Turning to `CCCCCN1CCC(C(=O)Nc2cc(C(=O)N3CCC(c4ccc(-c5cnn(C)c5)cc4)CC3)ccc2C)CC1` [Compound 176, N-(2-methyl-5-(4-(4-(1-methyl-1H-pyrazol-4-yl)phenyl)piperidine-1-carbonyl)phenyl)-1-pentylpiperidine-4-carboxamide], the IC50 with A2780 ovarian cells [1] was about 10000 nM; in assay [2], 105 nM; with A2780 ovarian cells [3], 53.7 nM; in assay [4] it was 33.9 nM. For the same compound, the inhibition at 10 µM in assay [4] is 110%.
On the same counts, the results for `Cc1ccc(C(=O)N2CCC(c3ccc(-c4cnn(C)c4)cc3)CC2)cc1NC(=O)c1ccccc1C(F)(F)F` [Compound 132, N-(2-methyl-5-(4-(4-(1-methyl-1H-pyrazol-4-yl)phenyl)piperidine-1-carbonyl)phenyl)-2-(trifluoromethyl)benzamide] are over 10000 nM, 204 nM, 339 nM, 120 nM and 97%.
The matching figures for `Cc1ccc(C(=O)N2CC(c3ccc(-c4ccsc4)cc3)C2)cc1NC(=O)c1ccc(NC(C)C)nc1` [Compound 26, 6-(isopropylamino)-N-(2-methyl-5-(3-(4-(thiophen-3-yl)phenyl)azetidine-1-carbonyl)phenyl)nicotinamide]: over 10000 nM, 40.7 nM, about 2290 nM, 32.4 nM and 105%.
Consider `Cc1ccc(C(=O)N2CC(c3ccc(-c4cccnc4)cc3)C2)cc1NC(=O)c1ccc(NC(C)C)nc1` [Compound 10, 6-(isopropylamino)-N-(2-methyl-5-(3-(4-(pyridin-3-yl)phenyl)azetidine-1-carbonyl)phenyl)nicotinamide], for which the IC50 in the assay with A2780 ovarian cells [1] is over 15100 nM; in assay [2] it was 44.7 nM; with A2780 ovarian cells [3] it was about 57.5 nM; in assay [4], 32.4 nM. The inhibition at 10 µM in assay [4] turned out to be 103%.
On the same counts, the results for `Cc1ccc(C(=O)N2CCC(c3ccc(-c4cnn(C)c4)cc3)CC2)cc1NC(=O)c1nc(Br)cs1` [Compound 244, 4-bromo-N-(2-methyl-5-(4-(4-(1-methyl-1H-pyrazol-4-yl)phenyl)piperidine-1-carbonyl)phenyl)thiazole-2-carboxamide] are 8320 nM, 191 nM, 95.5 nM, 44.7 nM and 106%.
On the same counts, the results for `Cc1ccc(C(=O)N2CCC(c3ccc(-c4cnn(-c5cccnc5)c4)cc3)CC2)cc1NC(=O)c1ccc(NC(C)C)nc1` [Compound 261, 6-(isopropylamino)-N-(2-methyl-5-(4-(4-(1-(pyridin-3-yl)-1H-pyrazol-4-yl)phenyl)piperidine-1-carbonyl)phenyl)nicotinamide] are 3310 nM, 126 nM, 112 nM, 60.3 nM and 107%.
The matching figures for `Cc1ccc(C(=O)N2CC(c3ccc(-c4cnn(C)c4)cc3)C2)cc1NC(=O)c1ccc(Cl)nc1` [Compound 4, 6-chloro-N-(2-methyl-5-(3-(4-(1-methyl-1H-pyrazol-4-yl)phenyl)azetidine-1-carbonyl)phenyl)nicotinamide]: over 10000 nM, 97.7 nM, 174 nM, 39.8 nM and 109%.
As to `Cc1ccc(C(=O)N2CCC(c3ccc(-c4cnn(C)c4)cc3)CC2)cc1NC(=O)C1CCN(C2CCCC2)CC1` [Compound 180, 1-cyclopentyl-N-(2-methyl-5-(4-(4-(1-methyl-1H-pyrazol-4-yl)phenyl)piperidine-1-carbonyl)phenyl)piperidine-4-carboxamide], the IC50 with A2780 ovarian cells [1] was over 10000 nM; in assay [2], 40.7 nM; with A2780 ovarian cells [3], 16.6 nM; in assay [4] it was 25.1 nM. The inhibition at 10 µM in assay [4] worked out at 104%.
For the compound `Cc1ccc(C(=O)N2CCC(c3ccc(-c4cnn(C)c4)cc3)CC2)cc1NC(=O)c1sccc1C` [Compound 149, 3-methyl-N-(2-methyl-5-(4-(4-(1-methyl-1H-pyrazol-4-yl)phenyl)piperidine-1-carbonyl)phenyl)thiophene-2-carboxamide], the IC50 was 9550 nM in the assay on A2780 ovarian cells [1], 214 nM in assay [2], 457 nM with A2780 ovarian cells [3] and 57.5 nM in assay [4]. Besides, the inhibition at 10 µM in assay [4] is 103%.
`CCCCN1CC(C(=O)Nc2cc(C(=O)N3CCC(c4ccc(-c5cnn(C)c5)cc4)CC3)ccc2C)C1` [Compound 242, 1-butyl-N-(2-methyl-5-(4-(4-(1-methyl-1H-pyrazol-4-yl)phenyl)piperidine-1-carbonyl)phenyl)azetidine-3-carboxamide]: the IC50 in the assay with A2780 ovarian cells [1] was over 10000 nM; in assay [2], 158 nM; with A2780 ovarian cells [3], 95.5 nM; in assay [4], 72.4 nM. In assay [4], the inhibition at 10 µM was 105%.
For `COc1cccc(C(=O)Nc2cc(C(=O)N3CCC(c4ccc(-c5cnn(C)c5)cc4)CC3)ccc2C)c1` [Compound 94, 3-methoxy-N-(2-methyl-5-(4-(4-(1-methyl-1H-pyrazol-4-yl)phenyl)piperidine-1-carbonyl)phenyl)benzamide], the IC50 with A2780 ovarian cells [1] was 7590 nM; in assay [2] it was 83.2 nM; in the assay with A2780 ovarian cells [3], 148 nM; in assay [4] it was 20.4 nM. In addition, the inhibition at 10 µM in assay [4] stood at 100%.
On the same counts, the results for `Cc1ccc(C(=O)N2CCC(c3ccc(-c4cnn(C)c4)cc3)CC2)cc1NC(=O)c1ccc(N2CCN[C@@H](CO)C2)nc1` [Compound 163, (3R)-6-(3-(hydroxymethyl)piperazin-1-yl)-N-(2-methyl-5-(4-(4-(1-methyl-1H-Pyrazol-4-yl)phenyl)piperidine-1-carbonyl)phenyl)nicotinamide] are over 10000 nM, 46.8 nM, 13.2 nM, 28.8 nM and 105%.
`CC(C)Nc1ccc(C(=O)Nc2cc(C(=O)N3CCC(c4ccc(-c5ccncc5)cc4)CC3)ccc2Cl)cn1` [Compound 72, N-(2-chloro-5-(4-(4-(pyridin-4-yl)phenyl)piperidine-1-carbonyl)phenyl)-6-(isopropylamino)nicotinamide]: the IC50 with A2780 ovarian cells [1] was 2630 nM; in assay [2] it was 251 nM; in the assay with A2780 ovarian cells [3], 513 nM; in assay [4] it was 39.8 nM. Besides, in assay [4], the inhibition at 10 µM is 110%.
The matching figures for `COc1ccc(C(=O)N2CC(c3ccc(-c4cnn(C)c4)cc3)C2)cc1NC(=O)c1ccc(N2CCOCC2)nc1` [Compound 184, N-(2-methoxy-5-(3-(4-(1-methyl-1H-pyrazol-4-yl)phenyl)azetidine-1-carbonyl)phenyl)-6-morpholinonicotinamide]: over 10000 nM, 123 nM, 58.9 nM, 36.3 nM and 105%.
With `Cc1ccc(C(=O)N2CC(c3ccc(-c4cccnc4N)cc3)C2)cc1NC(=O)c1ccc(Cl)nc1` [Compound 259, N-(5-(3-(4-(2-aminopyridin-3-yl)phenyl)azetidine-1-carbonyl)-2-methylphenyl)-6-chloronicotinamide], the IC50 was over 10000 nM with A2780 ovarian cells [1], 355 nM in assay [2], about 85.1 nM with A2780 ovarian cells [3] and 56.2 nM in assay [4]. Also, in assay [4], the inhibition at 10 µM was found to be 103%.
